Measurements reported in patent US9771333B2, “Quinazoline derivatives as TAM family kinase inhibitors” (SIGNALCHEM LIFESCIENCES CORP., priority 2013, dated 2017).

Experiments:
Format in all cases: biochemical
[1] = molecular target: T1, human Tyro3 (Homo sapiens, UniProt Q06418); test: Kinase enzymatic activity assay (33P-radiolabeled phosphate transfer), Tyro3; conditions: recombinant human Tyro3 (455-end), poly(4:1 glu:tyr) substrate, 30 minutes
T1 construct: GST (N); made in house; host or cells: Sf9 insect cells (baculovirus)
T1 sequence (Q06418 455-890 limits assumed): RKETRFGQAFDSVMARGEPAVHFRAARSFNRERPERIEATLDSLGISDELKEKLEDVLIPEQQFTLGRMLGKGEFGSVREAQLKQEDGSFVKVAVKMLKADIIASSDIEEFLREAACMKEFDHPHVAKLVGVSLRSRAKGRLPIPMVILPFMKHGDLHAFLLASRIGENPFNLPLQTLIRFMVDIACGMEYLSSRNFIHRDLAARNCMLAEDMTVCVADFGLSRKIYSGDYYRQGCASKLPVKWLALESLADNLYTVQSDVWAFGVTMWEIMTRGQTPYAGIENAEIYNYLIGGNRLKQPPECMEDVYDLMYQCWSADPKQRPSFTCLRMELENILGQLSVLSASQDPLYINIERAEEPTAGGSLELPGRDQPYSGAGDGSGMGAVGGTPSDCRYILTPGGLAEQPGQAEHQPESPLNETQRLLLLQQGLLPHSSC
Summary of the method: (§1)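 GST-tagged human Tyro3 (455-end), Axl (473-end) and Mer (578-872) from Sf9 cells, with poly(Glu:Tyr) 4:1 substrate, in MOPS pH 7.2 buffer with MgCl2. [33P]-ATP added from a 250 µM cocktail; reaction 30 min at room temperature, filter-captured counts, duplicates. IC50 derived from % inhibition over a compound serial dilution.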

[2] = molecular target: T2, human Axl (Homo sapiens, UniProt P30530); test: Kinase enzymatic activity assay (33P-radiolabeled phosphate transfer), Axl; conditions: recombinant human Axl (473-end), poly(4:1 glu:tyr) substrate, 30 minutes
T2 construct: GST (N); made in house; host or cells: Sf9 insect cells (baculovirus)
T2 sequence (P30530 473-894 limits assumed): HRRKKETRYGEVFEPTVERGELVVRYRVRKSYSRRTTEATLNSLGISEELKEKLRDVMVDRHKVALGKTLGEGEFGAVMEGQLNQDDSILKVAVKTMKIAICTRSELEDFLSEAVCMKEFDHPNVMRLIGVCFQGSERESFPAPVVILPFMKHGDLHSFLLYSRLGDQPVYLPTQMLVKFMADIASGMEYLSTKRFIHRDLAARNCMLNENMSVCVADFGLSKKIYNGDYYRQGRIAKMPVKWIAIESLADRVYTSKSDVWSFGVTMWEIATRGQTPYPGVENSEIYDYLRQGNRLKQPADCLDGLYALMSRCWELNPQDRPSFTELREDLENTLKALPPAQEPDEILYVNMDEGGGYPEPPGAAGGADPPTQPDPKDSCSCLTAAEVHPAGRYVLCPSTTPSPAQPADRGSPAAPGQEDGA
Summary of the method: as §1

[3] = molecular target: T3, human Mer (Homo sapiens, UniProt Q12866); test: Kinase enzymatic activity assay (33P-radiolabeled phosphate transfer), Mer; conditions: recombinant human Mer (578-872), poly(4:1 glu:tyr) substrate, 30 minutes
T3 construct: GST (N); made in house; host or cells: Sf9 insect cells (baculovirus)
T3 sequence (Q12866 578-872): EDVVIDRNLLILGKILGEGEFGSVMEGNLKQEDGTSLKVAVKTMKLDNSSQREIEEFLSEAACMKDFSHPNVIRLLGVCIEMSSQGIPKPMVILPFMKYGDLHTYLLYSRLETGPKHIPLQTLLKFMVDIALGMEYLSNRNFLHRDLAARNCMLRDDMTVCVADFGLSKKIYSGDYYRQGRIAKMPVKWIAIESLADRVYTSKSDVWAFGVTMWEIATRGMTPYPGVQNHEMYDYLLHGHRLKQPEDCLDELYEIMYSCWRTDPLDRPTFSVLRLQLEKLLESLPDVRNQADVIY
Summary of the method: as §1

Row | SMILES | IC50 [1] [µM] | IC50 [2] [µM] | IC50 [3] [µM]
1 | Cc1nnc(Sc2ncnc3cc(OCC4CCN(C)CC4)cc(OC4CCOCC4)c23)s1 [Example 2.48, 2-methyl-5-((7-((1-methylpiperidin-4-yl)methoxy)-5-((tetrahydro-2H-pyran-4-yl)oxy)quinazolin-4-yl)thio)-1,3,4-thiadiazole] | > 10 | 0.5 to 1 | > 10
2 | Cc1csc(Sc2ncnc3cc(OCC4CCN(C)CC4)cc(OC4CCOCC4)c23)n1 [Example 2.51, 4-methyl-2-((7-((1-methylpiperidin-4-yl)methoxy)-5-((tetrahydro-2H-pyran-4-yl)oxy)quinazolin-4-yl)thio)thiazole] | < 0.5 | < 0.5 | 1 to 10
3 | CN1CCC(COc2cc(OC3CCOCC3)c3c(Sc4nccs4)ncnc3c2)CC1 [Example 2.52, 2-((7-((1-methylpiperidin-4-yl)methoxy)-5-((tetrahydro-2H-pyran-4-yl)oxy)quinazolin-4-yl)thio)thiazole] | < 0.5 | < 0.5 | < 0.5
4 | CN(C)CCCOc1cc(OC2CCOCC2)c2c(Nc3nc(C(F)(F)F)cs3)ncnc2c1 [Example 2.54, N-(7-(3-(dimethylamino)propoxy)-5-((tetrahydro-2H-pyran-4-yl)oxy)quinazolin-4-yl)-4-(trifluoromethyl)thiazol-2-amine] | > 10 | < 0.5 | 1 to 10
5 | CN(C)CCOCCOc1cc(OC2CCOCC2)c2c(Nc3nc(C(F)(F)F)cs3)ncnc2c1 [Example 2.56, N-(7-(2-(2-(dimethylamino)ethoxy)ethoxy)-5-((tetrahydro-2H-pyran-4-yl)oxy)quinazolin-4-yl)-4-(trifluoromethyl)thiazol-2-amine] | > 10 | < 0.5 | 1 to 10
6 | CN(C)CCN1CCN(c2cc(OC3CCOCC3)c3c(Nc4nc(C(F)(F)F)cs4)ncnc3c2)CC1 [Example 2.57, N-(7-(4-(2-(dimethyl-amino)ethyl)piperazin-1-yl)-5-((tetrahydro-2H-pyran-4-yl)oxy)-quinazolin-4-yl)-4-(trifluoromethyl)-thiazol-2-amine] | 1 to 10 | < 0.5 | 1 to 10
7 | CN1CCC(COc2cc(OC3CCOCC3)c3c(Nc4cc(C(F)(F)F)no4)ncnc3c2)CC1 [Example 2.58, N-(7-((1-methylpiperidin-4-yl)methoxy)-5-((tetrahydro-2H-pyran-4-yl)oxy)quinazolin-4-yl)-3-(trifluoromethyl)isoxazol-5-amine] | > 10 | 0.5 to 1 | 1 to 10
8 | CN(C)CCCN(C)c1cc(OC2CCOCC2)c2c(Nc3nc(C(F)(F)F)cs3)ncnc2c1 [Example 2.59, N^7-(3-(dimethylamino)-propyl)-N^7-methyl-5-((tetrahydro-2H-pyran-4-yl)oxy)-N^4-(4-(trifluoromethyl)thiazol-2-yl)quinazoline-4,7-diamine] | > 10 | 0.5 to 1 | > 10
9 | CN1CCC(COc2cc(OC3CCOCC3)c3c(Nc4ccon4)ncnc3c2)CC1 [Example 2.61, N-(7-((1-methylpiperidin-4-yl)methoxy)-5-((tetrahydro-2H-pyran-4-yl)oxy)-quinazolin-4-yl)isoxazol-3-amine] | 1 to 10 | < 0.5 | < 0.5
10 | CN(C)CCCOc1cc(OC2CCOCC2)c2c(Oc3ccc(F)cc3Cl)ncnc2c1 [Example 2.62, 3-((4-(2-chloro-4-fluorophenoxy)-5-((tetrahydro-2H-pyran-4-yl)oxy)quinazolin-7-yl)oxy)-N,N-dimethylpropan-1-amine] | < 0.5 | 1 to 10 | < 0.5
11 | CN1CCN(CCCOc2cc(OC3CCOCC3)c3c(Oc4ccc(F)cc4Cl)ncnc3c2)CC1 [Example 2.63, 4-(2-chloro-4-fluorophenoxy)-7-(3-(4-methylpiperazin-1-yl)propoxy)-5-((tetrahydro-2H-pyran-4-yl)oxy)quinazoline] | < 0.5 | < 0.5 | < 0.5
12 | CN1CCN(CCOc2cc(OC3CCOCC3)c3c(Oc4ccc(F)cc4Cl)ncnc3c2)CC1 [Example 3, 4-(2-chloro-4-fluorophenoxy)-7-(2-(4-methylpiperazin-1-yl)ethoxy)-5-((tetrahydro-2H-pyran-4-yl)oxy)quinazoline] | 0.5 to 1 | 1 to 10 | 1 to 10
13 | CN1CCN(CCOc2cc(OC3CCOCC3)c3c(Oc4ccccc4)ncnc3c2)CC1 [Example 3.2, 7-(2-(4-methylpiperazin-1-yl)ethoxy)-4-phenoxy-5-((tetrahydro-2H-pyran-4-yl)oxy)quinazoline] | < 0.5 | < 0.5 | 1 to 10
14 | CN1CCN(CCOc2cc(OC3CCOCC3)c3c(Sc4ccc(F)cc4Cl)ncnc3c2)CC1 [Example 3.3, 4-((2-chloro-4-fluorophenyl)thio)-7-(2-(4-methylpiperazin-1-yl)ethoxy)-5-((tetrahydro-2H-pyran-4-yl)oxy)quinazoline] | < 0.5 | > 10 | 1 to 10
15 | CN1CCN(CCOc2cc(OC3CCOCC3)c3c(OC4CCCCC4)ncnc3c2)CC1 [Example 3.4, 4-(cyclohexyloxy)-7-(2-(4-methylpiperazin-1-yl)ethoxy)-5-((tetrahydro-2H-pyran-4-yl)oxy)quinazoline] | 1 to 10 | 0.5 to 1 | 0.5 to 1

Results, then the molecule that gave them:

Row | IC50 [1] [µM] | IC50 [2] [µM] | IC50 [3] [µM] | SMILES
16 | 1 to 10 | < 0.5 | 1 to 10 | CN1CCC(COc2cc(OC3CCOCC3)c3c(Sc4nncs4)ncnc3c2)CC1 [Example 2.47, 2-((7-((1-methylpiperidin-4-yl)methoxy)-5-((tetrahydro-2H-pyran-4-yl)oxy)quinazolin-4-yl)thio)-1,3,4-thiadiazole]
17 | 1 to 10 | > 10 | > 10 | Cc1nc(Sc2ncnc3cc(OCC4CCN(C)CC4)cc(OC4CCOCC4)c23)oc1C [Example 2.49, 4,5-dimethyl-2-((7-((1-methylpiperidin-4-yl)methoxy)-5-((tetrahydro-2H-pyran-4-yl)oxy)quinazolin-4-yl)thio)oxazole]
18 | > 10 | 0.5 to 1 | 1 to 10 | CN1CCC(COc2cc(OC3CCOCC3)c3c(Sc4nc(C(F)(F)F)cs4)ncnc3c2)CC1 [Example 2.50, 2-((7-((1-methylpiperidin-4-yl)methoxy)-5-((tetrahydro-2H-pyran-4-yl)oxy)quinazolin-4-yl)thio)-4-(trifluoromethyl)thiazole]
19 | > 10 | 1 to 10 | > 10 | FC(F)(F)c1csc(Nc2ncnc3cc(OCCN4CCOCC4)cc(OC4CCOCC4)c23)n1 [Example 2.53, N-(7-(2-morpholinoethoxy)-5-((tetrahydro-2H-pyran-4-yl)oxy)quinazolin-4-yl)-4-(trifluoromethyl)thiazol-2-amine]
20 | > 10 | 0.5 to 1 | > 10 | OC[C@@H](O)COc1cc(OC2CCOCC2)c2c(Nc3nc(C(F)(F)F)cs3)ncnc2c1 [Example 2.55, (R)-3-((5-((tetrahydro-2H-pyran-4-yl)oxy)-4-((4-(trifluoromethyl)thiazol-2-yl)amino)quinazolin-7-yl)oxy)propane-1,2-diol]
21 | > 10 | < 0.5 | < 0.5 | FC(F)(F)c1csc(Nc2ncnc3cc(OCCN4CCCCC4)cc(OC4CCOCC4)c23)n1 [Example 2.60, N-(7-(2-(piperidin-1-yl)ethoxy)-5-((tetrahydro-2H-pyran-4-yl)oxy)quinazolin-4-yl)-4-(trifluoromethyl)thiazol-2-amine]
22 | 0.5 to 1 | > 10 | 0.5 to 1 | COc1cc(OC2CCOCC2)c2c(Oc3ccc(F)cc3Cl)ncnc2c1 [Example 3.1, 4-(2-chloro-4-fluorophenoxy)-7-methoxy-5-((tetrahydro-2H-pyran-4-yl)oxy)quinazoline]
